Data taken from patent US20100249419A1, “UTILIZATION OF NOVEL COMPOUNDS WITH AMYLOID AFFINITY AND METHOD OF PRODUCING THE SAME” (NIHON MEDI-PHYSICS CO., LTD., priority 2007, published 2010).

Key:
[1] = molecular target: T1, aggregated Aβ (Aβ1-42) injected into amygdaloid nucleus (Homo sapiens, UniProt P05067); assay: Confirmation of imaging of amyloid in brain (ex vivo autoradiogram, Aβ1-42); design: species or system male Wistar rat; conditions: brain slice 60 minutes after tail vein injection
T1 construct: Aβ1-42 (manufactured by Wako) was dissolved in phosphate buffer (pH 7.4); purchased Wako
Description: The following experiment was carried out in order to examine whether amyloid in brain can be imaged by the compound of the present invention.
(1) Aβ1-42 (manufactured by Wako) was dissolved in phosphate buffer (pH 7.4) and shaken at 37° C. for 72 hours, to obtain a 1 mg/mL suspension of aggregated Aβ (hereinafter referred to as amyloid suspension in the Examples).
(2) 2.5 μL (corresponding to […]) of the amyloid suspension was injected into an amygdaloid nucleus on one side of a male Wistar rat (7-week old). As a control, 2.5 μL of a phosphate buffered physiological saline solution (pH 7.4) was injected into an amygdaloid nucleus on the other side of the rat. The rats were examined 1 day after the injection of the amyloid suspension and the phosphate buffered physiological saline solution (pH 7.4).
(3) Compound 1 was dissolved in a 10 mg/mL ascorbic acid-containing physiological saline solution to obtain a sample solution (22 MBq/mL in radioactivity concentration in the sample solution). This solution was injected under thiopental anesthesia into the rat through the tail vein (dosage: 0.5 mL, dosed radioactivity: 11-13 MBq equivalent).
(4) Brain was removed 60 minutes after the injection to prepare a brain slice of 10 μm in thickness with a microtome (type: CM3050S, manufactured by LEICA). The brain slice was exposed to an imaging plate for 20 hours, and then image analysis was carried out by use of a Bio-imaging Analyzer (type: BAS-2500; manufactured by FUJIFILM Corporation).
(5) After the completion of the image analysis using the Bio-imaging Analyzer, […]
Thus, it was confirmed that amyloid was deposited on the slice (FIG. 6b).
The same procedures as in Example 12 were performed except using a solution of Compound 2 in a 10 mg/mL ascorbic acid as a sample solution (the radioactive concentration of the sample solution was 25 MBq/mL).
(1) Aβ1-42 (manufactured by Wako) was dissolved in phosphate buffer (pH 7.4) and shaken at 37° C. for 72 hours, to obtain 1 mg/mL of a suspension of aggregated Aβ (hereinafter referred to as amyloid suspension in the Examples).
(3) A sample solution (30 MBq/mL in radioactivity concentration, Example 24) in which Compound 4 was dissolved in a 10 mg/mL ascorbic acid-containing physiological saline solution and a sample solution (30 MBq/mL in radioactivity concentration, Example 25) in which Compound 6 was dissolved in a 10 mg/mL ascorbic acid-containing physiological saline solution were prepared. This solution was injected under thiopental anesthesia into the rat through the tail vein (dosage: 0.5 mL, dosed radioactivity: 11-15 MBq equivalent).
Thus, it was confirmed that amyloid was deposited on the slice (FIG. 12 and FIG. 13).

[2] = molecular target: T2, aggregated amylin (amyloid) (Homo sapiens, UniProt P10997); assay: Inhibition of binding of Thioflavin T to amyloid derived from amylin; conditions: Thioflavin T 5 μmol/L
T2 construct: Amylin (human) (manufactured by Wako); purchased Wako
T2 sequence (P10997 34-70 limits assumed): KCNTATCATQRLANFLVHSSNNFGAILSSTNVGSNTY
Description: Amylin is an amyloid accumulating in pancreas of type II diabetes.
(1) Amylin (human) (manufactured by Wako) was dissolved in phosphate buffer (pH 7.4) and shaken at 37° C. for 72 hours, to obtain a 1 mg/mL suspension of aggregated amylin (hereinafter referred to as amyloid suspension in this Example).
(2) According to the method described in a literature (Naiki, H., et al., Laboratory
(3) The amyloid suspension was dissolved in 50 mM phosphate buffer (pH 7.4) at a concentration of amylin of 15 μM.
(4) Samples in which each compound for evaluation and amyloid were dissolved in a 50 mM phosphate buffer (pH 7.4) at final concentrations shown in Table 9 were prepared.
(5) A sample in which 100 μL of 50 mM phosphate buffer (pH 7.4) and 50 μL of 50 mM glycin-NaOH buffer were mixed was made as a blank, and subjected to the same procedure as in (4) and used for a calculation of inhibition ratio.
(6) The microplate filled with the sample solutions was left to stand still at room temperature for 30 hours.
(7) Using the fluorescence strength measured above in (6), the following formula (6): […]
was used to determine the inhibition ratio.

T1 sequence (P05067 672-713): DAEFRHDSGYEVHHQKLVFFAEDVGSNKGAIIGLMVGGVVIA

## 2-[4′-(3″-hydroxypropoxy)phenyl]-6-[^123I]iodoimidazo[1,2-a]pyridine [Compound 6]
[1]
  Accumulation of radioactivity in amygdaloid nucleus on the amyloid-injected side: marked accumulation of radioactivity

## 2-[4′-(2″-hydroxyethoxy)phenyl]-6-[^123I]iodoimidazo[1,2-a]pyridine [Compound 1]
[2]; compound 1.5 μmol/L
  Inhibition ratio (%) of binding of amyloid (amylin) to Thioflavin T: 34.4%
[2]; compound 15 μmol/L
  Inhibition ratio (%) of binding of amyloid (amylin) to Thioflavin T: 51.3%
[2]; compound 30 μmol/L
  Inhibition ratio (%) of binding of amyloid (amylin) to Thioflavin T: 46.8%
[1]
  Accumulation of radioactivity in amygdaloid nucleus on the amyloid-injected side: marked accumulation of radioactivity

## 2-(4′-ethoxyphenyl)-6-[^123I]iodoimidazo[1,2-a]pyridine [Compound 2]
[2]; compound 1.5 μmol/L
  Inhibition ratio (%) of binding of amyloid (amylin) to Thioflavin T: 37.1%
[2]; compound 15 μmol/L
  Inhibition ratio (%) of binding of amyloid (amylin) to Thioflavin T: 46.9%
[2]; compound 30 μmol/L
  Inhibition ratio (%) of binding of amyloid (amylin) to Thioflavin T: 53.0%
[1]
  Accumulation of radioactivity in amygdaloid nucleus on the amyloid-injected side: marked accumulation of radioactivity
